Measured values as given in the supplement of paper PMC11208160.

Assay: recombinant UMI read abundance after kanamycin selection (control-corrected) (log10(CPM+1)); higher = more efficient recombination; extreme values may be limits of the assay; sequences stand for … in AGTGCAGAGAAAATCGGCCAGTTTTCTCTGCCTGCAGTCCGCATGCCGTGGGACCCCTTGGGTTCTAACCTGTTGCCTAGATTTATGCAGCGGACTGCCTTTCTCCCAAAGTGATAAACCGG…AGGTTGGTTTCACT; site = the 11-nt donor
Outline: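 Pooled Escherichia coli screen of donor and donor-binding-loop pairs for the IS621 bridge recombinase. Each pair sits with a 12-nt UMI on a plasmid carrying a promoterless kanamycin gene. The library was co-electroporated with a target plasmid encoding a fixed target and T7-inducible recombinase, then plated with IPTG (0.07 mM) plus kanamycin, or unselected, each in two replicates. Recombinant UMIs were PCR-amplified across the donor–target junction and sequenced. Counts became CPM, averaged over replicates, scaled by control-derived factors and reported as log10(CPM+1).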
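Also: IS621 bridge recombinase in Escherichia coli cells against a fixed T5 target plasmid.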

Sequence	recombinant UMI read abundance (log10)
CAATTGCCATGGACCGGTTTTCCCGGTAATCCGTATTTGCT (site CAATTCCCTAG)	0
CAATTGCCATGGACCGGTTTTCCCGGTAATCCGTATTTGCT (site CAATTGCCTAG)	1.32
CAATTGCCATGGACCGGTTTTCCCGGTAATCCGTATTTGCT (site CAATTTCCTAG)	0
CACAAAACATGGACCGGTTTTCCCGGTAATCCGTATTTGGC (site CACAAAACTGC)	1.79
CACAAACCATGGACCGGTTTTCCCGGTAATCCGTATTTGGT (site AACAAACCTAC)	0
CACAAACCATGGACCGGTTTTCCCGGTAATCCGTATTTGGT (site CACAAACCTAC)	0
CACAAACCATGGACCGGTTTTCCCGGTAATCCGTATTTGGT (site GACAAACCTAC)	0
CACAAACCATGGACCGGTTTTCCCGGTAATCCGTATTTGGT (site TACAAACCTAC)	0
CACACATCATGGACCGGTTTTCCCGGTAATCCGTATTTGCC (site CACACATCTGG)	2.15
CACACCTCATGGACCGGTTTTCCCGGTAATCCGTATTTGGC (site CACACCTCTGC)	3.07
CACACTGCATGGACCGGTTTTCCCGGTAATCCGTATTTGTA (site CACACTGCTTA)	1.72
CACAGATCATGGACCGGTTTTCCCGGTAATCCGTATTTGAT (site CACAGATCTAT)	2.37
CACATGGCATGGACCGGTTTTCCCGGTAATCCGTATTTGTA (site CACATGGCTTA)	2.31
CACCAGTCATGGACCGGTTTTCCCGGTAATCCGTATTTGAC (site CACCAGTCTGT)	0.85
CACCGTACATGGACCGGTTTTCCCGGTAATCCGTATTTGCG (site CACCGTACTCG)	1.35
CACCGTCCATGGACCGGTTTTCCCGGTAATCCGTATTTGAT (site AACCGTCCTAT)	0.117
CACCGTCCATGGACCGGTTTTCCCGGTAATCCGTATTTGAT (site CACCGTCCTAT)	1.03
CACCGTCCATGGACCGGTTTTCCCGGTAATCCGTATTTGAT (site GACCGTCCTAT)	0.00326
CACCGTCCATGGACCGGTTTTCCCGGTAATCCGTATTTGAT (site TACCGTCCTAT)	0.0173

Sequence	recombinant UMI read abundance (log10)
CACCTCTCATGGACCGGTTTTCCCGGTAATCCGTATTTGCT (site CACCTCTCTAG)	2.84
CACCTGCCATGGACCGGTTTTCCCGGTAATCCGTATTTGTC (site CACCTGCCTGA)	0
CACCTTACATGGACCGGTTTTCCCGGTAATCCGTATTTGGG (site CACCTTACTCC)	0.0575
CACGCAGCATGGACCGGTTTTCCCGGTAATCCGTATTTGCT (site CAAGCAGCTAG)	0
CACGCAGCATGGACCGGTTTTCCCGGTAATCCGTATTTGCT (site CACGCAGCTAG)	2.31
CACGCAGCATGGACCGGTTTTCCCGGTAATCCGTATTTGCT (site CAGGCAGCTAG)	0.261
CACGCAGCATGGACCGGTTTTCCCGGTAATCCGTATTTGCT (site CATGCAGCTAG)	0
CACGCCGCATGGACCGGTTTTCCCGGTAATCCGTATTTGGT (site TTAAGTTCTTG)	0
CACGCGTCATGGACCGGTTTTCCCGGTAATCCGTATTTGAG (site CACGCGTCTCT)	2.11
CACGGCACATGGACCGGTTTTCCCGGTAATCCGTATTTGTT (site CACGGCACTAA)	1.6
CACGGCACATGGACCGGTTTTCCCGGTAATCCGTATTTGTT (site CACGGCCCTAA)	0.00343
CACGGCACATGGACCGGTTTTCCCGGTAATCCGTATTTGTT (site CACGGCGCTAA)	0.6
CACGGCACATGGACCGGTTTTCCCGGTAATCCGTATTTGTT (site CACGGCTCTAA)	0.746
CACGGCTCATGGACCGGTTTTCCCGGTAATCCGTATTTGTT (site CACGGCACTAA)	0.963
CACGGCTCATGGACCGGTTTTCCCGGTAATCCGTATTTGTT (site CACGGCCCTAA)	0.277
CACGGCTCATGGACCGGTTTTCCCGGTAATCCGTATTTGTT (site CACGGCGCTAA)	0.0461
CACGGCTCATGGACCGGTTTTCCCGGTAATCCGTATTTGTT (site CACGGCTCTAA)	3.26
CACGTACCATGGACCGGTTTTCCCGGTAATCCGTATTTGAA (site CACGTACCTTT)	0.24
CACGTCACATGGACCGGTTTTCCCGGTAATCCGTATTTGAG (site CACGTCACTCT)	1.36

Sequence	recombinant UMI read abundance (log10)
CACTACGCATGGACCGGTTTTCCCGGTAATCCGTATTTGGA (site CACTACGCTTC)	1.41
CACTCATCATGGACCGGTTTTCCCGGTAATCCGTATTTGCC (site CACTCATCTGG)	1.74
CACTCATCATGGACCGGTTTTCCCGGTAATCCGTATTTGCC (site CACTCCTCTGG)	0.652
CACTCATCATGGACCGGTTTTCCCGGTAATCCGTATTTGCC (site CACTCGTCTGG)	0
CACTCATCATGGACCGGTTTTCCCGGTAATCCGTATTTGCC (site CACTCTTCTGG)	0
CACTCCACATGGACCGGTTTTCCCGGTAATCCGTATTTGCC (site CACTCCACTGG)	2.65
CACTCCACATGGACCGGTTTTCCCGGTAATCCGTATTTGCC (site CACTCCCCTGG)	0
CACTCCACATGGACCGGTTTTCCCGGTAATCCGTATTTGCC (site CACTCCGCTGG)	1.8
CACTCCACATGGACCGGTTTTCCCGGTAATCCGTATTTGCC (site CACTCCTCTGG)	1.26
CACTCCGCATGGACCGGTTTTCCCGGTAATCCGTATTTGCC (site CACTCCACTGG)	2.05
CACTCCGCATGGACCGGTTTTCCCGGTAATCCGTATTTGCC (site CACTCCCCTGG)	0
CACTCCGCATGGACCGGTTTTCCCGGTAATCCGTATTTGCC (site CACTCCGCTGG)	2.73
CACTCCGCATGGACCGGTTTTCCCGGTAATCCGTATTTGCC (site CACTCCTCTGG)	1.36
CACTCCTCATGGACCGGTTTTCCCGGTAATCCGTATTTGAG (site CACTCCTCTCT)	0.883
CACTCCTCATGGACCGGTTTTCCCGGTAATCCGTATTTGCA (site CACTCCTCTAG)	0.743
CACTCCTCATGGACCGGTTTTCCCGGTAATCCGTATTTGCA (site CACTCCTCTCG)	1.09
CACTCCTCATGGACCGGTTTTCCCGGTAATCCGTATTTGCA (site CACTCCTCTGG)	1.21
CACTCCTCATGGACCGGTTTTCCCGGTAATCCGTATTTGCA (site CACTCCTCTTG)	2.98
CACTCCTCATGGACCGGTTTTCCCGGTAATCCGTATTTGCC (site AACTCCTCTGG)	0.563
